{"source": "patent US20030005484A1", "about": "“Microbiocidal and pesticidal aromatic aldehydes” (ProGuard, Inc., priority 1994, published 2003)", "tested_on": "Ring Nematode", "assay": "vineyard grape vines, nematode infestation: ring", "type": "in vivo", "experimental": "The subject formulations were tested for ability to reduce grape vine infestation by root knot, ring, stubby root, and roll lesion nematodes. Grape vines (Harmony rootstock) in a vinyard were treated with 1000 ppm or 3000 ppm cinnamaldehyde in 2% Tween 80, the commercial anti-nematode agent Nemacur, or a formulation blank. The extent of nematode infestation was determined at the time of treatment and at 30 and 60 days post-treatment.", "data": [{"smiles": "O=C/C=C/c1ccccc1", "note": "[cinnamic aldehyde]", "values": [{"measurement": "Ring Nematode, nematodes per 250 cc soil", "setting": "1000 ppm in 2% Tween 80, 30 days post-treatment", "value": 171.2, "unit": "per 250 cc soil"}, {"measurement": "Ring Nematode, nematodes per 250 cc soil", "setting": "1000 ppm in 2% Tween 80, 60 days post-treatment", "value": 1168, "unit": "per 250 cc soil"}, {"measurement": "Ring Nematode, nematodes per 250 cc soil", "setting": "1000 ppm in 2% Tween 80, day 0 (time of treatment)", "value": 47.2, "unit": "per 250 cc soil"}, {"measurement": "Ring Nematode, nematodes per 250 cc soil", "setting": "3000 ppm in 2% Tween 80, 30 days post-treatment", "value": 322.8, "unit": "per 250 cc soil"}, {"measurement": "Ring Nematode, nematodes per 250 cc soil", "setting": "3000 ppm in 2% Tween 80, 60 days post-treatment", "value": 1127, "unit": "per 250 cc soil"}, {"measurement": "Ring Nematode, nematodes per 250 cc soil", "setting": "3000 ppm in 2% Tween 80, day 0 (time of treatment)", "value": 540.2, "unit": "per 250 cc soil"}]}]}
